Experimental data as given in patent publication US20250145585A1, “HETEROCYCLIC INHIBITORS OF IGF-1R FOR TREATMENT OF DISEASE” (HORIZON THERAPEUTICS IRELAND DAC, priority 2023, published 2025).

Target: T1, IGF-1R (Homo sapiens, UniProt P08069)
T1 construct: expressed in transfected cells
Test: Example B-2: IGF-1R Assay (PathHunter cell lines, EC80 agonist challenge, chemiluminescent detection)
Type: cell-based
Settings: PathHunter cells, compound 60 minutes at 37° C., EC80 agonist 3 hours; read-out: IC50, Biological Activity against IGF-1R (Table B2)
Outline: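 PathHunter cells were pre-incubated with compound for 60 min at 37° C (1% vehicle), then challenged with EC80 agonist for 3 h at room temperature. Chemiluminescent detection after 1 h gave % inhibition relative to EC80 and vehicle controls, from which IC50 was derived.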

T1 sequence (P08069 31-1367): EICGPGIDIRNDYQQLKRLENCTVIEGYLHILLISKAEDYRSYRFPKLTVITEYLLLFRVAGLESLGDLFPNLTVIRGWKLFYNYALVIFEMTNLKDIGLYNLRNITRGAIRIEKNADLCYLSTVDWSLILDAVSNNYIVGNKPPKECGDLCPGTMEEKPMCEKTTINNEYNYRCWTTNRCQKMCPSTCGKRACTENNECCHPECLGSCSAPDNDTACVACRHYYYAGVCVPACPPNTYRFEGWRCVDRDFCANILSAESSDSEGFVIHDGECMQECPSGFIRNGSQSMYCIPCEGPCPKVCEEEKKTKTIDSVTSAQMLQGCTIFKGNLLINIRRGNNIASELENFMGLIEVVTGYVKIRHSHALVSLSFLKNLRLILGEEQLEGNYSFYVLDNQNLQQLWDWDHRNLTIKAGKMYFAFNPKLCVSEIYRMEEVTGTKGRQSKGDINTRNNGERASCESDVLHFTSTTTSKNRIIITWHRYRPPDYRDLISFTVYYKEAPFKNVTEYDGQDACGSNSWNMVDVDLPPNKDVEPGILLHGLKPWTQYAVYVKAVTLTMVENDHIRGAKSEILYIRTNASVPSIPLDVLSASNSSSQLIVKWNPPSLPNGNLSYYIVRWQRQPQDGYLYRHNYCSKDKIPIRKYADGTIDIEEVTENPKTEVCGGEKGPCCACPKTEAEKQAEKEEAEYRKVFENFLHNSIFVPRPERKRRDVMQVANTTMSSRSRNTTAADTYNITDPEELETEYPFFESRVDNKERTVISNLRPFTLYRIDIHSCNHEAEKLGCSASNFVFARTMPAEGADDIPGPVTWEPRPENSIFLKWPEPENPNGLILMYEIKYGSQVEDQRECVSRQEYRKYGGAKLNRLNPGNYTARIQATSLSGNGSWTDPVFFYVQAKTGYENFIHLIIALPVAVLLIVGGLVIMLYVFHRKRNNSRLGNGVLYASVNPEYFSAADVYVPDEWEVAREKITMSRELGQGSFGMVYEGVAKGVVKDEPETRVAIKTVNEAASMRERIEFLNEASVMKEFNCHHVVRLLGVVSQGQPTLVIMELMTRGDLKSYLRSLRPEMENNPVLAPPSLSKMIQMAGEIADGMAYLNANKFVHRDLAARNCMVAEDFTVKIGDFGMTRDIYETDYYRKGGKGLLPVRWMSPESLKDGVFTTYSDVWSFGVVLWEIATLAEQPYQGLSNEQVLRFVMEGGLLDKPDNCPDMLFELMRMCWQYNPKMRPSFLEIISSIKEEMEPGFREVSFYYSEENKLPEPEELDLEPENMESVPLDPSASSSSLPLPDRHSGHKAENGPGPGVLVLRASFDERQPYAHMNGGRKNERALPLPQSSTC

SMILES	IC50
CN1CC(C)(C)c2ccc(N3C(=O)N(Cc4ccnc(N[C@H]5CCOC5)c4)C(C)(C)C3=O)cc21 [Compound 206, (S)-5,5-dimethyl-1-((2-((tetrahydrofuran-3-yl)amino)pyridin-4-yl)methyl)-3-(1,3,3-trimethylindolin-6-yl)imidazolidine-2,4-dione]	500 to 2000 nM
CC1(C)CN(S(C)(=O)=O)c2cc(N3C(=O)N(Cc4ccnc(N[C@H]5[C@@H]6COC[C@@H]65)c4)C(C)(C)C3=O)ccc21 [Compound 207, 1-((2-(((1R,5S,6r)-3-oxabicyclo[3.1.0]hexan-6-yl)amino)pyridin-4-yl)methyl)-3-(3,3-dimethyl-1-(methylsulfonyl)indolin-6-yl)-5,5-dimethylimidazolidine-2,4-dione]	≤ 500 nM
CC1(C)CN(S(C)(=O)=O)c2cc(N3C(=O)N(Cc4ccnc(N[C@@H]5C[C@@H]5F)c4)C(C)(C)C3=O)ccc21 [Compound 208, 3-(3,3-dimethyl-1-(methylsulfonyl)indolin-6-yl)-1-((2-(((1R,2S)-2-fluorocyclopropyl)amino)pyridin-4-yl)methyl)-5,5-dimethylimidazolidine-2,4-dione]	≤ 500 nM
CC1(C)CN(S(C)(=O)=O)c2cc(N3C(=O)N(Cc4ccnc(NC5CCOCC5)c4)C(C)(C)C3=O)ccc21 [Compound 209, 3-(3,3-dimethyl-1-(methylsulfonyl)indolin-6-yl)-5,5-dimethyl-1-((2-((tetrahydro-2H-pyran-4-yl)amino)pyridin-4-yl)methyl)imidazolidine-2,4-dione]	≤ 500 nM
CN1CC(C)(C)c2ccc(N3C(=O)N(Cc4ccnc(NC5CCOCC5)c4)C(C)(C)C3=O)cc21 [Compound 210, 5,5-dimethyl-1-((2-((tetrahydro-2H-pyran-4-yl)amino)pyridin-4-yl)methyl)-3-(1,3,3-trimethylindolin-6-yl)imidazolidine-2,4-dione]	≤ 500 nM
CC1(C)C(=O)N(c2ccc3c(c2)N(S(C)(=O)=O)CC32CCC2)C(=O)N1Cc1ccnc(NC2CCOCC2)c1 [Compound 211, 5,5-dimethyl-3-(1′-(methylsulfonyl)spiro[cyclobutane-1,3′-indolin]-6′-yl)-1-((2-((tetrahydro-2H-pyran-4-yl)amino)pyridin-4-yl)methyl)imidazolidine-2,4-dione]	≤ 500 nM
CC1(C)C(=O)N(c2ccc3c(c2)N(S(C)(=O)=O)CC32CC2)C(=O)N1Cc1ccnc(NC2CCOCC2)c1 [Compound 212, 5,5-dimethyl-3-(1′-(methylsulfonyl)spiro[cyclopropane-1,3′-indolin]-6′-yl)-1-((2-((tetrahydro-2H-pyran-4-yl)amino)pyridin-4-yl)methyl)imidazolidine-2,4-dione]	≤ 500 nM
COC[C@@H](C)Nc1cc(CN2C(=O)N(c3ccc4c(c3)N(S(C)(=O)=O)CC43CC3)C(=O)C2(C)C)ccn1 [Compound 213, (R)-1-((2-((1-methoxypropan-2-yl)amino)pyridin-4-yl)methyl)-5,5-dimethyl-3-(1′-(methylsulfonyl)spiro[cyclopropane-1,3′-indolin]-6′-yl)imidazolidine-2,4-dione]	≤ 500 nM
CN1CC2(CCC2)c2ccc(N3C(=O)N(Cc4ccnc(NC5CCOCC5)c4)C(C)(C)C3=O)cc21 [Compound 214, 5,5-dimethyl-3-(1′-methylspiro[cyclobutane-1,3′-indolin]-6′-yl)-1-((2-((tetrahydro-2H-pyran-4-yl)amino)pyridin-4-yl)methyl)imidazolidine-2,4-dione]	≤ 500 nM
C[C@@H](CC#N)Nc1cc(CN2C(=O)N(c3ccc4c(c3)N(S(C)(=O)=O)CC4(C)C)C(=O)C2(C)C)ccn1 [Compound 215, (S)-3-((4-((3-(3,3-dimethyl-1-(methylsulfonyl)indolin-6-yl)-5,5-dimethyl-2,4-dioxoimidazolidin-1-yl)methyl)pyridin-2-yl)amino)butanenitrile]	≤ 500 nM
CC1(C)C(=O)N(c2ccc3c(c2)N(S(C)(=O)=O)CC32CCC2)C(=O)N1Cc1ccnc(N[C@H]2[C@@H]3COC[C@@H]32)c1 [Compound 216, 1-((2-(((1R,5S,6r)-3-oxabicyclo[3.1.0]hexan-6-yl)amino)pyridin-4-yl)methyl)-5,5-dimethyl-3-(1′-(methylsulfonyl)spiro[cyclobutane-1,3′-indolin]-6′-yl)imidazolidine-2,4-dione]	≤ 500 nM
C[C@@H](CC#N)Nc1cc(CN2C(=O)N(c3ccc4c(c3)N(C)CC4(C)C)C(=O)C2(C)C)ccn1 [Compound 217, (S)-3-((4-((5,5-dimethyl-2,4-dioxo-3-(1,3,3-trimethylindolin-6-yl)imidazolidin-1-yl)methyl)pyridin-2-yl)amino)butanenitrile]	≤ 500 nM
CN1CC(C)(C)c2ccc(N3C(=O)N(Cc4ccnc(N[C@H]5[C@@H]6COC[C@@H]65)c4)C(C)(C)C3=O)cc21 [Compound 218, 1-((2-(((1R,5S,6r)-3-oxabicyclo[3.1.0]hexan-6-yl)amino)pyridin-4-yl)methyl)-5,5-dimethyl-3-(1,3,3-trimethylindolin-6-yl)imidazolidine-2,4-dione]	≤ 500 nM
COCCC(C)Nc1cc(CN2C(=O)N(c3ccc4c(c3)N(S(C)(=O)=O)CC4(C)C)C(=O)C2(C)C)ccn1 (stereo not shown) [Compound 219, 3-(3,3-dimethyl-1-(methylsulfonyl)indolin-6-yl)-1-((2-((4-methoxybutan-2-yl)amino)pyridin-4-yl)methyl)-5,5-dimethylimidazolidine-2,4-dione]	≤ 500 nM
C[C@@H](CC#N)Nc1cc(CN2C(=O)N(c3ccc4c(c3)N(S(C)(=O)=O)CC43CCC3)C(=O)C2(C)C)ccn1 [Compound 221, (S)-3-((4-((5,5-dimethyl-3-(1′-(methylsulfonyl)spiro[cyclobutane-1,3′-indolin]-6′-yl)-2,4-dioxoimidazolidin-1-yl)methyl)pyridin-2-yl)amino)butanenitrile]	≤ 500 nM
CC1(C)C(=O)N(c2ccc3c(c2)N(S(C)(=O)=O)CC32CC2)C(=O)N1Cc1ccnc(N[C@H]2[C@@H]3COC[C@@H]32)c1 [Compound 222, 1-((2-(((1R,5S,6r)-3-oxabicyclo[3.1.0]hexan-6-yl)amino)pyridin-4-yl)methyl)-5,5-dimethyl-3-(1′-(methylsulfonyl)spiro[cyclopropane-1,3′-indolin]-6′-yl)imidazolidine-2,4-dione]	≤ 500 nM
CC1(C)C(=O)N(c2ccc3c(c2)N(S(C)(=O)=O)CC32CC2)C(=O)N1Cc1ccnc(N[C@H]2CCOC2)c1 [Compound 223, (S)-5,5-dimethyl-3-(1′-(methylsulfonyl)spiro[cyclopropane-1,3′-indolin]-6′-yl)-1-((2-((tetrahydrofuran-3-yl)amino)pyridin-4-yl)methyl)imidazolidine-2,4-dione]	≤ 500 nM
COCCOC[C@@H](C)Nc1cc(CN2C(=O)N(c3ccc4c(c3)N(S(C)(=O)=O)CC4(C)C)C(=O)C2(C)C)ccn1 [Compound 224, (R)-3-(3,3-dimethyl-1-(methylsulfonyl)indolin-6-yl)-1-((2-((1-(2-methoxyethoxy)propan-2-yl)amino)pyridin-4-yl)methyl)-5,5-dimethylimidazolidine-2,4-dione]	≤ 500 nM
CC(Nc1cc(CN2C(=O)N(c3ccc4c(c3)N(S(C)(=O)=O)CC43CCC3)C(=O)C2(C)C)ccn1)C1CCOC1 (stereo not shown) [Compound 225, 5,5-dimethyl-3-(1′-(methylsulfonyl)spiro[cyclobutane-1,3′-indolin]-6′-yl)-1-((2-((1-(tetrahydrofuran-3-yl)ethyl)amino)pyridin-4-yl)methyl)imidazolidine-2,4-dione]	≤ 500 nM
CC1(C)C(=O)N(c2ccc3c(c2)N(S(C)(=O)=O)CC32CCC2)C(=O)N1Cc1ccnc(NCC2CCOC2)c1 (stereo not shown) [Compound 226, 5,5-dimethyl-3-(1′-(methylsulfonyl)spiro[cyclobutane-1,3′-indolin]-6′-yl)-1-((2-(((tetrahydrofuran-3-yl)methyl)amino)pyridin-4-yl)methyl)imidazolidine-2,4-dione]	≤ 500 nM
COCCN1CC(C)(C)c2ccc(N3C(=O)N(Cc4ccnc(NC5CCOCC5)c4)C(C)(C)C3=O)cc21 [Compound 227, 3-(1-(2-methoxyethyl)-3,3-dimethylindolin-6-yl)-5,5-dimethyl-1-((2-((tetrahydro-2H-pyran-4-yl)amino)pyridin-4-yl)methyl)imidazolidine-2,4-dione]	≤ 500 nM
COCCS(=O)(=O)N1CC(C)(C)c2ccc(N3C(=O)N(Cc4ccnc(NC5CCOCC5)c4)C(C)(C)C3=O)cc21 [Compound 228, 3-(1-((2-methoxyethyl)sulfonyl)-3,3-dimethylindolin-6-yl)-5,5-dimethyl-1-((2-((tetrahydro-2H-pyran-4-yl)amino)pyridin-4-yl)methyl)imidazolidine-2,4-dione]	≤ 500 nM
CC1(C)COc2cc(N3C(=O)N(Cc4ccnc(N[C@H]5[C@@H]6COC[C@@H]65)c4)C(C)(C)C3=O)ccc21 [Compound 229, 1-((2-(((1R,5S,6r)-3-oxabicyclo[3.1.0]hexan-6-yl)amino)pyridin-4-yl)methyl)-3-(3,3-dimethyl-2,3-dihydrobenzofuran-6-yl)-5,5-dimethylimidazolidine-2,4-dione]	≤ 500 nM
C[C@@H](CC#N)Nc1cc(CN2C(=O)N(c3ccc4c(c3)N(S(C)(=O)=O)CC43CC3)C(=O)C2(C)C)ccn1 [Compound 230, (S)-3-((4-((5,5-dimethyl-3-(1′-(methylsulfonyl)spiro[cyclopropane-1,3′-indolin]-6′-yl)-2,4-dioxoimidazolidin-1-yl)methyl)pyridin-2-yl)amino)butanenitrile]	≤ 500 nM
CC1(C)C(=O)N(c2ccc3c(c2)N(C(=O)C2CC2)CC32CC2)C(=O)N1Cc1ccnc(N[C@H]2[C@@H]3COC[C@@H]32)c1 [Compound 231, 1-((2-((1R,5S,6r)-3-oxabicyclo[3.1.0]hexan-6-ylamino)pyridin-4-yl)methyl)-3-(1′-(cyclopropanecarbonyl)spiro[cyclopropane-1,3′-indolin]-6′-yl)-5,5-dimethylimidazolidine-2,4-dione]	≤ 500 nM
